system: SNU-16; assay: Cell SNU-16 assay; type: cell-based; conditions: Homo sapiens, SNU-16, SNU-16 cells

Row | IC50 [µM] | Compound
1 | 0.1 to 0.25 | C#Cc1cc(C)c(-c2c(C3=CC[C@@]4(CC3)Cc3ccc(C)nc3C4=O)c3c(N)ncnc3n2C)cn1 [Example 1394]
2 | 0.25 to 1 | C#Cc1ccc2ccc(-c3c(-c4ccc(Oc5nccc(C)n5)c(F)c4)c4c(N)ncnc4n3C)cc2n1 [Example 1412]
3 | ≤ 0.1 | C#Cc1cc(C)c(-c2c(-c3ccc(Oc4cccc(C)n4)c(F)c3)c3c(N)ncnc3n2C)cn1 [Example 1203]
4 | 0.25 to 1 | C=CC(=O)N[C@H]1CC=C(c2c(-c3ccc(Oc4nccc(C)n4)c(F)c3)c3c(N)ncnc3n2C)CC1 [Example 1377]
5 | 1 to 100 | C#Cc1cc(C)c(-c2nn3c(c2-c2ccc(Oc4nccc(C)n4)c(F)c2)COCC3)cn1 [Example 1462]
6 | 0.25 to 1 | C=C(C)C(=O)Nc1ccc(-c2c(-c3cnn(-c4ccccc4)c3)c3c(N)ncnc3n2C)cc1 [Example 1281]
7 | ≤ 0.1 | C#Cc1cc(C)c(-c2c(C3=CC[C@@H](C(=O)N4CCC[C@H]4C)CC3)c3c(N)ncnc3n2C)cn1 (single isomer, unassigned) [Example 1219]
8 | 0.25 to 1 | C=C(C)C(=O)Nc1ccc(-c2c(-c3ccc(-c4nnc(C)o4)cc3)c3c(N)ncnc3n2C)cc1 [Example 1123]
9 | ≤ 0.1 | C=C(C)C(=O)Nc1ccc(-c2c(-c3ccc(Oc4cccc(C)n4)cc3)c3c(N)ncnn3c2C)cc1 [Example 836]
10 | ≤ 0.1 | Cc1ccnc(Oc2ccc(-c3c(C4=CCN(C(=O)[C@H]5CO5)C4)n(C)c4ncnc(N)c34)cc2)n1 (single isomer, unassigned) [Example 908]
11 | ≤ 0.1 | C#Cc1ncc(-c2c(-c3ccc(Oc4nccc(C)n4)c(F)c3)c3c(N)ncnc3n2C)c2ccccc12 [Example 1233]
12 | ≤ 0.1 | CC1=C[C@H](C)N(c2ccc(-c3c(-c4ccc(Oc5nccc(C)n5)cc4)c4c(N)ncnc4n3C)cc2)C1=O [Example 1118]
13 | 0.25 to 1 | C=C(C)C(=O)Nc1ccc(-c2c(-c3cnc(-c4ccc(F)cc4)s3)c3c(N)ncnc3n2C)cc1 [Example 1424]
14 | ≤ 0.1 | C#CCCCCn1c(-c2ccc(NC(=O)C(=C)C)cc2)c(-c2ccc(Oc3nccc(C)n3)c(F)c2)c2c(N)ncnc21 [Example 1007]
15 | 0.1 to 0.25 | C#Cc1ncc(-c2c(C3=CC[C@@H](C(=O)N4CCCC4)CC3)c3c(N)ncnc3n2C)c(C)c1F (single isomer, unassigned) [Example 1329]
16 | 0.25 to 1 | C=C(C)C(=O)Nc1ccc(-c2cn3ncnc(N)c3c2-c2ccc(S(=O)(=O)N3CCCC3)cc2)cc1 [Example 826]
17 | 1 to 100 | C=C(C)C(=O)N[C@H]1C[C@H](c2c(-c3ccc(C(=O)N4CCCC4)cc3)c3c(N)ncnc3n2C)C1 [Example 880]
18 | ≤ 0.1 | C#Cc1cnc(-c2c(-c3ccc(Oc4nccc(C)n4)c(F)c3)c3c(N)ncnc3n2C)c(C)n1 [Example 1358]
19 | 0.25 to 1 | C=C(C)C(=O)Nc1ccc(-c2c(C3=CC[C@H](C(=O)N4CC5CC4C5)CC3)c3c(N)ncnc3n2C)cc1 [Example 997]
20 | 0.25 to 1 | C=CC(=O)N1CCC(c2c(-c3ccc(-n4cc(C)cn4)cc3)c3c(N)ncnc3n2C)C1 (centres unmarked) [Example 811]
21 | ≤ 0.1 | C=C(C)C(=O)Nc1ccc(-c2c(N3CC[C@@H](C(=O)N4CCCC4)CC3=O)c3c(N)ncnc3n2C)cc1 (single isomer, unassigned) [Example 925]
22 | 1 to 100 | C=CC(=O)N1C[C@H](c2c(-c3ccc(C(=O)N4CCCCC4)cc3)c3c(N)ncnc3n2C)C[C@@H]1C (single isomer, unassigned) [Example 888]
23 | ≤ 0.1 | C#Cc1cc(CC)c(-c2c(-c3ccc(Oc4nccc(C)n4)c(F)c3)c3c(N)ncnc3n2C)cn1 [Example 1217]
24 | ≤ 0.1 | C=C(C)C(=O)Nc1ccc(-c2c(-c3ccc(Oc4nccc(C)n4)c(F)c3)c3c(C)ncnc3n2C)cc1 [Example 1068]
25 | 0.1 to 0.25 | C=CC(=O)N1CCC(n2cc(-c3c(-c4ccc(C(=O)N5CC6CC5C6)cc4)c4c(N)ncnc4n3C)cn2)CC1 [Example 848]
26 | 1 to 100 | C=C(C)C(=O)Nc1cc(C)c(-c2c(-c3ccc(Oc4cccc(C)n4)c(F)c3)c3c(N)ncnc3n2C)cn1 [Example 1091]
27 | 1 to 100 | C=CC(=O)N1CCC(c2c(-c3ccc(N4CCNC4=O)cc3)c3c(N)ncnc3n2C)C1 (centres unmarked) [Example 803]

Row | Compound | IC50 [µM]
28 | Cn1c(-c2ccc(NC(=O)[C@H]3CN3)cc2)c(-c2ccc(C(=O)N3CCCC3)cc2)c2c(N)ncnc21 (single isomer, unassigned) [Example 900] | 1 to 100

biological target: FGFR2 (Homo sapiens (Human), UniProt P21802); assay: Biochemical FGFR2 Caliper assay; conditions: not given
Sequence (P21802 22-821): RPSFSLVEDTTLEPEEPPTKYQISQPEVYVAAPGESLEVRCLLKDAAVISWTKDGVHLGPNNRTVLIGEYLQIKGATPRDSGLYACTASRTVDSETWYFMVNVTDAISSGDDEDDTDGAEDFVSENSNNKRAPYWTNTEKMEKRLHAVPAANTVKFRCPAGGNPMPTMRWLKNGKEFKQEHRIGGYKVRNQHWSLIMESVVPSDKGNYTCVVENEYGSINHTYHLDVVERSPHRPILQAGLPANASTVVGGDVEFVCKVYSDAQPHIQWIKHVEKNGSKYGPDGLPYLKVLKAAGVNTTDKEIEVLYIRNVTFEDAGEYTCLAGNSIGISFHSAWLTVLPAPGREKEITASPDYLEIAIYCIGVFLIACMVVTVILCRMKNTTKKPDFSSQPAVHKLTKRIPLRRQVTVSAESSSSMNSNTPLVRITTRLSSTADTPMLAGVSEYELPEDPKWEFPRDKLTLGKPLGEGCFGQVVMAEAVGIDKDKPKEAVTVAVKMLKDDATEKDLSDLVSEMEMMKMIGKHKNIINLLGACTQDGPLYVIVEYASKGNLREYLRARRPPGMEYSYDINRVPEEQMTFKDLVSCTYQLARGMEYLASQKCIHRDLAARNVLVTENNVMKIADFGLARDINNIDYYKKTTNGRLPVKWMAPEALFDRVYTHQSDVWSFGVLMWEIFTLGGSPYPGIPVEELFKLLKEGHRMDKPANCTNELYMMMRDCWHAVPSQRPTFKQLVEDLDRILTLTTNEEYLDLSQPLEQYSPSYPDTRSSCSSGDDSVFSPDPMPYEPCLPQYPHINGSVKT

Row | IC50 [µM] | Compound
29 | 0.1 to 0.25 | C#Cc1cc(C)c(-c2c(C3=CC[C@@]4(CC3)Cc3ccc(C)nc3C4=O)c3c(N)ncnc3n2C)cn1 [Example 1394]
30 | 0.25 to 1 | C#Cc1ccc2ccc(-c3c(-c4ccc(Oc5nccc(C)n5)c(F)c4)c4c(N)ncnc4n3C)cc2n1 [Example 1412]
31 | < 0.1 | C#Cc1cc(C)c(-c2c(-c3ccc(Oc4cccc(C)n4)c(F)c3)c3c(N)ncnc3n2C)cn1 [Example 1203]
32 | 0.25 to 1 | C=CC(=O)N[C@H]1CC=C(c2c(-c3ccc(Oc4nccc(C)n4)c(F)c3)c3c(N)ncnc3n2C)CC1 [Example 1377]
33 | 1 to 100 | C#Cc1cc(C)c(-c2nn3c(c2-c2ccc(Oc4nccc(C)n4)c(F)c2)COCC3)cn1 [Example 1462]
34 | 1 to 100 | C=C(C)C(=O)Nc1ccc(-c2c(-c3cnn(-c4ccccc4)c3)c3c(N)ncnc3n2C)cc1 [Example 1281]
35 | < 0.1 | C#Cc1cc(C)c(-c2c(C3=CC[C@@H](C(=O)N4CCC[C@H]4C)CC3)c3c(N)ncnc3n2C)cn1 (single isomer, unassigned) [Example 1219]
36 | 1 to 100 | C=C(C)C(=O)Nc1ccc(-c2c(-c3ccc(-c4nnc(C)o4)cc3)c3c(N)ncnc3n2C)cc1 [Example 1123]
37 | < 0.1 | C=C(C)C(=O)Nc1ccc(-c2c(-c3ccc(Oc4cccc(C)n4)cc3)c3c(N)ncnn3c2C)cc1 [Example 836]
38 | 0.1 to 0.25 | Cc1ccnc(Oc2ccc(-c3c(C4=CCN(C(=O)[C@H]5CO5)C4)n(C)c4ncnc(N)c34)cc2)n1 (single isomer, unassigned) [Example 908]
39 | < 0.1 | C#Cc1ncc(-c2c(-c3ccc(Oc4nccc(C)n4)c(F)c3)c3c(N)ncnc3n2C)c2ccccc12 [Example 1233]
40 | < 0.1 | CC1=C[C@H](C)N(c2ccc(-c3c(-c4ccc(Oc5nccc(C)n5)cc4)c4c(N)ncnc4n3C)cc2)C1=O [Example 1118]
41 | 0.1 to 0.25 | C=C(C)C(=O)Nc1ccc(-c2c(-c3cnc(-c4ccc(F)cc4)s3)c3c(N)ncnc3n2C)cc1 [Example 1424]
42 | < 0.1 | C#CCCCCn1c(-c2ccc(NC(=O)C(=C)C)cc2)c(-c2ccc(Oc3nccc(C)n3)c(F)c2)c2c(N)ncnc21 [Example 1007]
43 | 0.25 to 1 | C#Cc1ncc(-c2c(C3=CC[C@@H](C(=O)N4CCCC4)CC3)c3c(N)ncnc3n2C)c(C)c1F (single isomer, unassigned) [Example 1329]
44 | 0.25 to 1 | C=C(C)C(=O)Nc1ccc(-c2cn3ncnc(N)c3c2-c2ccc(S(=O)(=O)N3CCCC3)cc2)cc1 [Example 826]
45 | 1 to 100 | C=C(C)C(=O)N[C@H]1C[C@H](c2c(-c3ccc(C(=O)N4CCCC4)cc3)c3c(N)ncnc3n2C)C1 [Example 880]
46 | < 0.1 | C#Cc1cnc(-c2c(-c3ccc(Oc4nccc(C)n4)c(F)c3)c3c(N)ncnc3n2C)c(C)n1 [Example 1358]
47 | 1 to 100 | C=C(C)C(=O)Nc1ccc(-c2c(C3=CC[C@H](C(=O)N4CC5CC4C5)CC3)c3c(N)ncnc3n2C)cc1 [Example 997]
48 | 0.1 to 0.25 | C=CC(=O)N1CCC(c2c(-c3ccc(-n4cc(C)cn4)cc3)c3c(N)ncnc3n2C)C1 (centres unmarked) [Example 811]
49 | < 0.1 | C=C(C)C(=O)Nc1ccc(-c2c(N3CC[C@@H](C(=O)N4CCCC4)CC3=O)c3c(N)ncnc3n2C)cc1 (single isomer, unassigned) [Example 925]
50 | 1 to 100 | C=CC(=O)N1C[C@H](c2c(-c3ccc(C(=O)N4CCCCC4)cc3)c3c(N)ncnc3n2C)C[C@@H]1C (single isomer, unassigned) [Example 888]
51 | < 0.1 | C#Cc1cc(CC)c(-c2c(-c3ccc(Oc4nccc(C)n4)c(F)c3)c3c(N)ncnc3n2C)cn1 [Example 1217]
52 | < 0.1 | C=C(C)C(=O)Nc1ccc(-c2c(-c3ccc(Oc4nccc(C)n4)c(F)c3)c3c(C)ncnc3n2C)cc1 [Example 1068]
53 | 0.1 to 0.25 | C=CC(=O)N1CCC(n2cc(-c3c(-c4ccc(C(=O)N5CC6CC5C6)cc4)c4c(N)ncnc4n3C)cn2)CC1 [Example 848]
54 | 1 to 100 | C=C(C)C(=O)Nc1cc(C)c(-c2c(-c3ccc(Oc4cccc(C)n4)c(F)c3)c3c(N)ncnc3n2C)cn1 [Example 1091]
55 | 1 to 100 | C=CC(=O)N1CCC(c2c(-c3ccc(N4CCNC4=O)cc3)c3c(N)ncnc3n2C)C1 (centres unmarked) [Example 803]

Row | Compound | IC50 [µM]
56 | Cn1c(-c2ccc(NC(=O)[C@H]3CN3)cc2)c(-c2ccc(C(=O)N3CCCC3)cc2)c2c(N)ncnc21 (single isomer, unassigned) [Example 900] | 1 to 100
